{"source": "patent US20240415859A1", "about": "“USE OF ISORHOIFOLIN AND DERIVATIVE THEREOF IN PROMOTING NERVE REPAIR” (priority 2021, published 2024)", "key": {"[1]": {"test_system": "Neuro2a cells", "assay": "CellTiter-Glo cell viability assay (cytotoxicity)", "type": "cell-based", "text": "Utilizing the CellTiter-Glo cell viability assay to assess the toxicity of Isorhoifolin on Neuro2a cells. CellTiter-Glo cell viability assay can detect the level of ATP in neuro2a cells after treatment of compounds to evaluate the survival rate."}, "[2]": {"test_system": "hippocampal neurons", "assay": "In vitro neural repair assay, injured hippocampal neurons (gap closure rate)", "type": "cell-based", "conditions": "E18 rat hippocampal neurons, 72 hours", "procedure": "The experimental procedure is as depicted in FIG. 1. Removed the brain of E18 rat embryos and dissected into cortex and hippocampus. Subsequently, the cortex and hippocampus were separated into cortical neurons and hippocampal neurons, respectively. Then, seeded hippocampal neurons on 48-well plates. The first day that neurons are cultured in vitro is defined as day in vitro 0 (DIV0). On DIV2, Cytosine beta-D-arabinoside (AraC) was added to neurons to inhibit the proliferation of glial cells. On DIV8, neurons were injured using pipette tips (p10 tips) and various concentrations of Isorhoifolin was added. After 72 hours, immunostaining was performed. TUJ1 antibody was used to label neuronal cells to observe the regrowth of neurites. Images were taken using Observer Z1 microscope. As depicted in FIG. 2, the degree of neuronal axon regeneration was quantified using the gap closure rate. White dashed lines indicate the borders of injury gap, the central black area represents the region scratched by the tip of a pipette tips. The newly regenerated neurites grow from the white dashed lines toward the center of the gap. To quantify the results, we measured the lengths of gap (Lg) and distance between regenerated neurites (Ln) every 50 μm. […] Gap closure rate is calculated using the formula: (Lg−Ln)/Lg. […]"}, "[3]": {"test_system": "injured brain sections", "assay": "Ex vivo 3D brain tissue slice culture, scalpel injury", "type": "cell-based", "conditions": "E18 rat brain slices 350 μm, added every day, 96 hours, vs ddH2O", "text": "For the experiment, we took out the brain of E18 rat embryos and embedded in low-melting agarose. The brains were sectioned using Leica microtome VT100. The tissue sections were collected with 350 μm thick and injured using a scalpel. And placed them in inserts within a 6-well plate. This culturing method allows the brain slices to be exposed to both medium and air, facilitating a more realistic representation of the interactions between neuronal cells and other brain cells, as well as the three-dimensional structure, compared to in vitro culture. ddH2O or Isorhoifolin was added to injured brain sections every day. After 96 hours, immunostaining was performed. TUJ1 antibody was used to label neuron cells. GFAP antibody was used to label glial cells. DAPI was used to label nucleus. The experimental procedure for the Isorhoifolin derivative Narirutin is also depicted in FIG. 6. Took out the brain of E18 rat embryos and embedded in low-melting agarose. The brains were sectioned using Leica microtome VT100. The tissue sections were collected with 350 μm thick and injured using a scalpel. And placed them in inserts within a 6-well plate. […]"}, "[4]": {"test_system": "retinal explants", "assay": "Ex vivo retinal explant neuronal tissue repair", "type": "cell-based, C57BL/6 mice", "conditions": "P8 mouse retinal explants, 9 μM or 90 μM, five days, vs ddH2O", "procedure": "Retinal explants were obtained from C57BL/6 mice at postnatal day 8. Following the sacrifice of mice, the eyes were enucleated, and the eyeballs were dissected using forceps and microscissors to separate the retina and remove the vitreous. Subsequently, the dissected retinas were quartered and trimmed along the edges of the tissue using microscissors. Each quarter was cultured on an 18 mm round coverslip and placed in a 12-well plate inside a CO2 incubator at 35° C. for five days. The culture medium was replaced daily with fresh medium containing either 9 μM or 90 μM Isorhoifolin. On the fifth day of culture, the retinal tissues were fixed with a mixture of 0.1% glutaraldehyde solution and 4% paraformaldehyde at room temperature for one hour. Immunostaining was performed using primary antibodies against the axonal marker beta-III-tubulin (TUJ1) and DAPI to label neurons and cell nuclei, respectively. Images were acquired using a super-resolution upright confocal microscope (LSM-800, Carl Zeiss). ImageJ software was utilized for image analysis, wherein the tissue boundary was delineated to calculate the perimeter and the area of neuronal fibers outside the tissue boundary. The ratio of neuronal fiber area to tissue boundary perimeter was then calculated to determine the unit perimeter neuronal fiber length."}, "[5]": {"test_system": "motor coordination after brain injury", "assay": "Controlled cortical impact (CCI) brain injury model, horizontal bar test", "type": "in vivo", "conditions": "mice, 14 or 140 μg/kg intranasal at 0, 2, 4, 6, 8, 10, 12 Dpi, tested 1, 3, 6, 10, 13 Dpi, vs ddH2O and Sham", "procedure": "Using the horizontal bar test, mice were placed on brass rods positioned at a height of 49 cm above the ground, with lengths of 38 cm and diameters of 2 mm, 4 mm, and 6 mm. Mice were required to grasp the brass rod with their forepaws, and their ability to move and coordinate was assessed by measuring the time spent on the brass rod and whether they reached the platform at the end of the rod. Evaluation criteria were as follows: 1 point for 1-5 seconds, 2 points for 5-10 seconds, 3 points for 10-20 seconds, 4 points for 20-30 seconds, and 5 points for over 30 seconds or reaching the platform. The experimental model, as depicted in FIG. 10, involved pre-training at −5, −3, and −1 days post injury (Dpi) (5, 3, and 1 day(s) before brain injury). At 0 Dpi, the controlled cortical impact model (CCI model) was used to induce brain injury in mice. Subsequently, at 0, 2, 4, 6, 8, 10, and 12 Dpi, mice were administered Isorhoifolin at doses of 14 or 140 μg/kg via intranasal delivery. Horizontal bar experiments were conducted at 1, 3, 6, 10, and 13 Dpi."}, "[6]": {"test_system": "cortical neurons", "assay": "In vitro neural repair assay, injured cortical neurons (gap closure rate)", "type": "cell-based", "conditions": "E18 rat cortical neurons, injured DIV8, 10 nM and 100 nM, 72 hours, standardized against 0.1% DMSO", "text": "As depicted in FIG. 2, the degree of neuronal axon regeneration was quantified using the gap closure rate. White dashed lines indicate the borders of injury gap, the central black area represents the region scratched by the tip of a pipette tips. The newly regenerated neurites grow from the white dashed lines toward the center of the gap. To quantify the results, we measured the lengths of gap (Lg) and distance between regenerated neurites (Ln) every 50 μm. After unbiasedly drawing ten lines of equal distance, the average distance between neurites is taken: Length of gap between regenerated neurons (Ln). Gap closure rate is calculated using the formula: (Lg−Ln)/Lg. Scale bar=100 μm. Images were taken using Observer Z1 microscope. The experimental procedure is also as depicted in FIG. 1. Removed the brain of E18 rat embryos and dissected into cortex and hippocampus. Subsequently, the cortex and hippocampus were separated into cortical neurons and hippocampal neurons, respectively. Then, seeded cortical neurons on 48-well plates. The first day that neurons are cultured in vitro is defined as day in vitro 0 (DIV0). On DIV2, Cytosine beta-D-arabinoside (AraC) was added to neurons to inhibit the proliferation of glial cells. On DIV8, neurons were injured using pipette tips (p10 tips) and 10 nM and 100 nM Narirutin was added. […]"}}, "data": [{"molecule": "C[C@@H]1O[C@@H](OC[C@H]2O[C@@H](Oc3cc(O)c4c(=O)cc(-c5ccc(O)cc5)oc4c3)[C@H](O)[C@@H](O)[C@@H]2O)[C@H](O)[C@H](O)[C@H]1O", "note": "[Isorhoifolin]", "values": [{"measurement": "toxicity towards Neuro2a cells", "setting": "[1]", "result": "low toxicity"}, {"measurement": "IC50", "setting": "[1]; Mus musculus, N2a, CellTiter-Glo, read-out: IC50 (cell viability, ATP level)", "result": "~11.6", "unit": "mM"}, {"measurement": "neurite regrowth after injury (gap closure rate)", "setting": "[2]; injured DIV8, various concentrations, TUJ1 staining", "result": "promotes neurite regrowth after injury in hippocampal neurons"}, {"measurement": "neurite outgrowth after injury in ex vivo 3D brain slice culture", "setting": "[3]", "result": "promotes neurite outgrowth after injury in ex vivo 3D brain slice culture"}, {"measurement": "recovery of injured retinal neurons (unit perimeter neuronal fiber length)", "setting": "[4]", "result": "significant recovery of injured retinal neurons"}, {"measurement": "motor coordination recovery (horizontal bar test score)", "setting": "[5]", "result": "motor coordination was similar to that of the Sham (surgery control) group"}]}, {"molecule": "Narirutin", "values": [{"measurement": "neurite regeneration after injury (gap closure rate)", "setting": "[6]", "result": "effectively promotes dendritic outgrowth in cortical neurons"}, {"measurement": "neurite regeneration after injury (gap closure rate)", "setting": "[2]; injured DIV8, 1 nM and 10 nM, standardized against 0.1% DMSO", "result": "effectively promotes dendritic outgrowth in hippocampal neurons"}, {"measurement": "neurite outgrowth after injury in ex vivo 3D brain slice culture", "setting": "[3]", "result": "promotes neurite outgrowth after injury in ex vivo 3D brain slice culture"}]}]}
